This passage reports IC50 results from US20160145247A1, “Aminomethyl-Biaryl Derivatives Complement Factor D inhibitors and uses thereof” (NOVARTIS AG, priority 2013, published 2016).

In the test the target is T1, factor D (Homo sapiens, UniProt P00746).
T1 construct: made in house; host or cells: E. coli
T1 sequence (P00746 26-253): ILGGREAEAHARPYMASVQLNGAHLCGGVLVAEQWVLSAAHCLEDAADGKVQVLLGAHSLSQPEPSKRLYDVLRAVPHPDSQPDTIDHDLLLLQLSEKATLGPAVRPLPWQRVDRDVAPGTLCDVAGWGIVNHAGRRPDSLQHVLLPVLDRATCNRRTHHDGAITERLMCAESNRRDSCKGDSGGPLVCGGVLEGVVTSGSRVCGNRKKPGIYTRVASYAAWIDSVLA
The test is described as follows: factor D inhibition assay of Biological Example 2. Format: biochemical.
As a reminder, the IC50 is the point on the concentration scale where inhibition reaches its midpoint. For `N[C@H](CO)c1cccc(-c2cc(COc3ccccc3CC(=O)O)c(F)c(NCC3CCCO3)c2)c1` (stereo partly drawn) [155 b), 2-(2-((3′-((S)-1-Amino-2-hydroxyethyl)-4-fluoro-5-(((tetrahydrofuran-2-yl)methyl)amino)-[1,1′-biphenyl]-3-yl)methoxy)phenyl)acetic acid], the IC50 stood at 4 nM. This counts as single-digit nanomolar. In turn, `NCc1cccc(-c2cccc(C(=O)Nc3ccccc3CC(N)=O)c2)c1` [Example 3-B, N-(2-(2-Amino-2-oxoethyl)phenyl)-3′-(aminomethyl)-[1,1′-biphenyl]-3-carboxamide] returned an IC50 of 80200 nM. This IC50 lies about 20000-fold higher than the previous one. `COC(=O)Cc1ccccc1NC(=O)c1cccc(-c2cc(CN)ccc2F)c1` [Example 4-A, Methyl 2-(2-(5′-(aminomethyl)-2′-fluoro-[1,1′-biphenyl]-3-ylcarboxamido)phenyl)acetate] gave an IC50 of 33100 nM. The value for `NCc1ccc(F)c(-c2cccc(C(=O)Nc3ccccc3CC(=O)O)c2)c1` [Example 4-B, 2-(2-(5′-(Aminomethyl)-2′-fluoro-[1,1′-biphenyl]-3-ylcarboxamido)phenyl)acetic acid] was 4600 nM; that for `CC(=O)Nc1cc(C(=O)Nc2ccccc2CC(=O)O)cc(-c2cccc(CN)c2)c1` [Example 5, 2-(2-(5-Acetamido-3′-(aminomethyl)-[1,1′-biphenyl]-3-ylcarboxamido)phenyl)acetic acid] was 45 nM; that for `NCc1cc(F)cc(-c2cccc(C(=O)Nc3ccccc3CC(=O)O)c2)c1` [Example 6-B, 2-(2-(3′-(Aminomethyl)-5′-fluoro-[1,1′-biphenyl]-3-ylcarboxamido)phenyl)acetic acid] was 106 nM. Regarding `CNC(=O)c1cc(C(=O)Nc2ccccc2CC(=O)O)cc(-c2cccc(CN)c2)c1` [Example 7-D, 2-(2-(3′-(Aminomethyl)-5-(methylcarbamoyl)-[1,1′-biphenyl]-3-ylcarboxamido)phenyl)acetic acid], it took 244 nM to reach half-maximal inhibition (IC50).

`COC(=O)Cc1ccccc1NC(=O)c1ccc(OC)c(-c2cccc(CN)c2)c1` [Example 8-A, Methyl 2-(2-(3′-(aminomethyl)-6-methoxy-[1,1′-biphenyl]-3-ylcarboxamido)phenyl)acetate] had an IC50 of 5050 nM. This IC50 lies about 21-fold higher than the previous one. The molecule `COc1ccc(C(=O)Nc2ccccc2CC(=O)O)cc1-c1cccc(CN)c1` [Example 8-B, 2-(2-(3′-(Aminomethyl)-6-methoxy-[1,1′-biphenyl]-3-ylcarboxamido)phenyl)acetic acid] showed an IC50 of 353 nM. As for `COc1ccc(C(=O)Nc2ccccc2CC(=O)O)cc1-c1cc(F)cc(CN)c1` [Example 9], the figure is 71 nM. `N=C(N)c1cccc(-c2cccc(C(=O)Nc3ccccc3CC(=O)O)c2)c1` [Example 10-B, 2-(2-(3′-Carbamimidoyl-[1,1′-biphenyl]-3-ylcarboxamido)phenyl)acetic acid] displayed an IC50 of 396 nM. As for `NCc1cc(F)cc(-c2cc(C(=O)Nc3ccccc3CC(=O)O)cc(-c3cnoc3)c2)c1` [Example 11-D, 2-(2-(3′-(Aminomethyl)-5′-fluoro-5-(isoxazol-4-yl)-[1,1′-biphenyl]-3-ylcarboxamido)phenyl)acetic acid], the figure is 17 nM. The value for `NCc1cc(F)cc(-c2cc(Br)cc(C(=O)Nc3ccccc3CC(=O)O)c2)c1` [Example 12, 2-(2-(3′-(Aminomethyl)-5-bromo-5′-fluoro-[1,1′-biphenyl]-3-ylcarboxamido)phenyl)acetic acid] was 80 nM; that for `NCc1cc(F)cc(-c2cc(Nc3ccccc3)cc(C(=O)Nc3ccccc3CC(=O)O)c2)c1` [Example 13-B, 2-(2-(3′-(Aminomethyl)-5′-fluoro-5-(phenylamino)-[1,1′-biphenyl]-3-ylcarboxamido)phenyl)acetic acid] was 9 nM. In turn, `COc1ccc(C)c(Nc2cc(C(=O)Nc3ccccc3CC(=O)O)cc(-c3cc(F)cc(CN)c3)c2)c1` [Example 14-A] yielded an IC50 of 15 nM. For `NCc1cc(F)cc(-c2cc(NCc3ccncc3)cc(C(=O)Nc3ccccc3CC(=O)O)c2)c1` [Example 14-B], half-maximal inhibition (IC50) was put at 11 nM.

With `Cn1ccc(CNc2cc(C(=O)Nc3ccccc3CC(=O)O)cc(-c3cc(F)cc(CN)c3)c2)n1` [Example 14-C], it took 5 nM to reach half-maximal inhibition (IC50). Turning to `NCc1cc(F)cc(-c2cc(NC[C@H]3CCCO3)cc(C(=O)Nc3ccccc3CC(=O)O)c2)c1` [Example 14-D], it took 21 nM to reach half-maximal inhibition (IC50). The value for `COCCNc1cc(C(=O)Nc2ccccc2CC(=O)O)cc(-c2cc(F)cc(CN)c2)c1` [Example 14-E] was 10 nM; that for `NCc1cc(F)cc(-c2cc(OC[C@@H]3CCCO3)cc(C(=O)Nc3ccccc3CC(=O)O)c2)c1` [Example 15-B, (S)-2-(2-(3′-(Aminomethyl)-5′-fluoro-5-((tetrahydrofuran-2-yl)methoxy)-[1,1′-biphenyl]-3-ylcarboxamido)phenyl)acetic acid] was 9 nM. As for `NCc1cccc(-c2cccc(C#Cc3ccccc3CC(=O)O)c2)c1` [Example 16-C, 2-(2-((3′-(Aminomethyl)-[1,1′-biphenyl]-3-yl)ethynyl)phenyl)acetic acid], the figure is 338 nM; as for `NCc1cccc(-c2cccc(CCc3ccccc3CC(=O)O)c2)c1` [Example 16-D, 2-(2-(2-(3′-(Aminomethyl)-[1,1′-biphenyl]-3-yl)ethyl)phenyl)acetic acid], 470 nM. In turn, `NCc1cccc(-c2cccc(C(=O)Nc3cc(Cl)ccc3CC(=O)O)c2)c1` [Example 17-B, 2-(2-(3′-(Aminomethyl)-[1,1′-biphenyl]-3-ylcarboxamido)-4-chlorophenyl)acetic acid] had an IC50 of 399 nM. The IC50 values of the last two molecules are within 1.5-fold of each other. For `NCc1cc(F)cc(-c2cccc(C(=O)Nc3ccc(Br)cc3CC(=O)O)c2)c1` [Example 18-B, 2-(2-(3′-(Aminomethyl)-5′-fluoro-[1,1′-biphenyl]-3-ylcarboxamido)-5-bromophenyl)acetic acid], the IC50 turned out to be 8790 nM. For `NCc1cc(F)cc(-c2cccc(C(=O)Nc3ccccc3CC(=O)O)n2)c1` [Example 20-B, 2-(2-(6-(3-(Aminomethyl)-5-fluorophenyl)picolinamido)phenyl)acetic acid], the midpoint of inhibition, the IC50, lay at 16 nM. The value for `NCc1cc(F)cc(-c2cccc(C(=O)Nc3cc(Br)ccc3CC(=O)O)c2)c1` [Example 21-A] was 414 nM; that for `Cc1ccc(CC(=O)O)c(NC(=O)c2cccc(-c3cc(F)cc(CN)c3)c2)c1` [Example 21-B] was 47 nM. Turning to `Cc1cccc(CC(=O)O)c1NC(=O)c1cccc(-c2cc(F)cc(CN)c2)c1` [Example 21-C], inhibition was half-maximal at 109 nM (IC50). The value for `NCc1cc(F)cc(-c2cccc(C(=O)Nc3c(F)cccc3CC(=O)O)c2)c1` [Example 21-D] was 989 nM; that for `NCc1cc(F)cc(-c2cccc(C(=O)Nc3c(Br)cccc3CC(=O)O)n2)c1` [Example 21-E] was 86 nM; that for `NCc1cc(F)cc(-c2cccc(C(=O)Nc3cccc(Cl)c3CC(=O)O)c2)c1` [Example 21-F] was 3120 nM. As for `NCc1cc(F)cc(-c2cccc(C(=O)Nc3cccc(Br)c3CC(=O)O)c2)c1` [Example 21-G], the figure is 7680 nM. As for `Cc1cccc(NC(=O)c2cccc(-c3cc(F)cc(CN)c3)c2)c1CC(=O)O` [Example 21-H], the figure is 940 nM. For the molecule `NCc1cc(F)cc(-c2cccc(C(=O)Nc3cc(F)ccc3CC(=O)O)c2)c1` [Example 21-I], half-maximal inhibition (IC50) required 469 nM. As for `NCc1cc(F)cc(-c2cccc(C(=O)Nc3ccc(F)cc3CC(=O)O)c2)c1` [Example 21-J], the figure is 517 nM; as for `COc1cccc(CC(=O)O)c1NC(=O)c1cccc(-c2cc(F)cc(CN)c2)c1` [Example 21-K], 126 nM.

In turn, `CCc1ccc(NC(=O)c2cccc(-c3cc(F)cc(CN)c3)n2)c(CC(=O)O)c1` [Example 21-L] showed an IC50 of 105 nM. In turn, `Cc1ccc(CC(=O)O)c(NC(=O)c2cccc(-c3cc(F)cc(CN)c3)n2)c1` [Example 21-M] showed an IC50 of 22 nM. `NCc1cc(F)cc(-c2cccc(C(=O)Nc3c(Cl)cccc3CC(=O)O)n2)c1` [Example 21-N]: the IC50 turned out to be 138 nM. For the molecule `CCc1ccc(CC(=O)O)c(NC(=O)c2cccc(-c3cc(F)cc(CN)c3)n2)c1` [Example 21-O], the IC50 was found to be 12 nM. In turn, `NCc1cc(F)cc(-c2cccc(C(=O)Nc3ccc(Cl)cc3CC(=O)O)n2)c1` [Example 21-P] yielded an IC50 of 118 nM. The value for `COc1ccc(CC(=O)O)c(NC(=O)c2cccc(-c3cc(F)cc(CN)c3)n2)c1` [Example 21-Q] was 22 nM; that for `Cc1ccc(NC(=O)c2cccc(-c3cc(F)cc(CN)c3)c2)c(CC(=O)O)c1` [Example 22-C, 2-(2-(3′-(aminomethyl)-5′-fluoro-[1,1′-biphenyl]-3-ylcarboxamido)-5-methylphenyl)acetic acid] was 835 nM. `CCc1ccc(NC(=O)c2cccc(-c3cc(F)cc(CN)c3)c2)c(CC(=O)O)c1` [Example 23-C, 2-(2-(3′-(Aminomethyl)-5′-fluoro-[1,1′-biphenyl]-3-ylcarboxamido)-5-ethylphenyl)acetic acid] came in with an IC50 of 396 nM. Compared with the last molecule, the IC50 is about 2.1-fold lower. The value for `CC(O)c1ccc(NC(=O)c2cccc(-c3cc(F)cc(CN)c3)c2)c(CC(=O)O)c1` (stereo not drawn) [Example 24, 2-(2-(3′-(Aminomethyl)-5′-fluoro-[1,1′-biphenyl]-3-ylcarboxamido)-5-(1-hydroxyethyl)phenyl)acetic acid] was 1740 nM. In turn, `CCc1ccc(NC(=O)c2cc(NC[C@@H]3CCCO3)cc(-c3cc(F)cc(CN)c3)c2)c(CC(=O)O)c1` [Example 25-D, (S)-2-(2-(3′-(Aminomethyl)-5′-fluoro-5-(((tetrahydrofuran-2-yl)methyl)amino)-[1,1′-biphenyl]-3-ylcarboxamido)-5-ethylphenyl)acetic acid] yielded an IC50 of 11 nM. This IC50 lies about 160-fold lower than the previous one. `NCc1cccc(-c2csc(C(=O)Nc3ccccc3CC(=O)O)n2)c1` [Example 26-B, 2-(2-(4-(3-(Aminomethyl)phenyl)thiazole-2-carboxamido)phenyl)acetic acid] had an IC50 of 94 nM. The value for `NCc1cccc(-c2nc(C(=O)Nc3ccccc3CC(=O)O)cs2)c1` [Example 27, 2-(2-(2-(3-(Aminomethyl)phenyl)thiazole-4-carboxamido)phenyl)acetic acid] was 50 nM.
